{"source": "paper PMC6934184", "about": "“Selective DNA-PKcs inhibition extends the therapeutic index of localized radiotherapy and chemotherapy” (The Journal of Clinical Investigation, 2019)", "target": "T1, ZAP70 (Homo sapiens, UniProt P43403)", "T1 construct": "purchased Thermo Fisher Scientific (Life Technologies) SelectScreen", "T1 sequence (P43403 whole entry)": "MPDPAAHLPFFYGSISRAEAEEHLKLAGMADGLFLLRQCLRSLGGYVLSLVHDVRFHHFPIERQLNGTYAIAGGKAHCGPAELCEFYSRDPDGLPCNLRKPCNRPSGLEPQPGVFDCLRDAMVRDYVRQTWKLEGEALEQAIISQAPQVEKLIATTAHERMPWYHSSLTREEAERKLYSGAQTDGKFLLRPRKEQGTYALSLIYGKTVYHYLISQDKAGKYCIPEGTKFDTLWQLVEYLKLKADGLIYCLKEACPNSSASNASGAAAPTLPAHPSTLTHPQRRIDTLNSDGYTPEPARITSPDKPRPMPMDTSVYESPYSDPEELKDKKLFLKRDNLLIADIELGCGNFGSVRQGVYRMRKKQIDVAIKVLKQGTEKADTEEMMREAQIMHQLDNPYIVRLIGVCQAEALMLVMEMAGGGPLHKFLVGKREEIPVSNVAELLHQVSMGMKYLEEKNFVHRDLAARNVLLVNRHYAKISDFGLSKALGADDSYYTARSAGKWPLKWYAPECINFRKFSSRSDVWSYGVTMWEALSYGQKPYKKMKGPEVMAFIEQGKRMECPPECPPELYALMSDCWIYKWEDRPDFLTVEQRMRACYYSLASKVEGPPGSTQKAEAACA", "test": "SelectScreen Z'LYTE", "format": "biochemical", "how_it_was_run": "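SelectScreen broad panel; activity (Z'LYTE, Adapta) plus binding formats. ATP: Km app for CSF1R Z'LYTE; 10 for CAMK1 Adapta. Readout = % per kinase.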", "data": [{"smiles": "CN(C(=O)CN1CCOCC1)c1ccc2sc3c(-c4cccc5c(=O)cc(N6CC7CCC(C6)O7)oc45)cccc3c2c1", "note": "[NU5455]", "values": [{"measurement": "inhibition at 1 µM", "result": 0.3, "unit": "%"}]}]}
